Test results as given in US4185119A, “Antiallergic methods” (priority 1977, dated 1980).
Where a name gives a salt, the structure may show the parent alone.

How the values were obtained:
Assay type in all cases: in vivo
[1] = test system: P.C.A. reaction in S.D. strain rats; test: Inhibition test of P.C.A. (Passive Cutaneous Anaphylaxis) reaction in S.D. strain rats, rat reaginic antiserum against egg albumin
Protocol: (a) Rat reaginic antiserum against egg albumin
A solution of egg albumin (2 mg) in B. pertussis-diphtheria-tetanus mixed vaccine (1 ml.) (made by Takeda Chemical Industries Ltd.) was mixed with an equal volume of incomplete adjuvant (made by Difco Laboratories) to give an emulsion. The emulsion was given subcutaneously in a single dose of 1 ml. divided equally (0.25 ml.) to the four foot pads of male S.D. (Sprague-Dawley) strain rats aged 8 weeks, each weighing about 300 g.
Five days after the administration, a solution of egg albumin (0.5 mg.) in B. pertussis-diphtheria-tetanus mixed vaccine (0.5 ml.) was further given intramuscularly in a single dose of 0.5 ml. divided equally (0.25 ml.) to 2 places of thigh of the same rats.
Three days after the second administration, blood samples were collected from femoral artery of the rats and allowed to stand at ambient temperature for 5 hours. The separated supernatant was centrifuged at 4° C. (10,000 r.p.m.× 1 hour). The antisera thus obtained were stored at -80° C. prior to use.
(§1) (2) Inhibition test of P.C.A. (Passive Cutaneous Anaphylaxis) reaction
(§2) (a) Inhibitory effect on P.C.A. reaction in S.D. strain rats
(§3) Fifteen male S.D. strain rats aged 8 weeks, each weighing about 270 g were divided equally into 3 groups.
(§4) A rat reaginic antiserum (0.07 ml.) as prepared by the above (1)-(a) was given intracutaneously to the depilated back of each rat of Group I and Group II. On the other hand, a rat normal serum (0.07 ml.) was given intracutaneously to the depilated back of each rat of Group III, respectively.
(§5) Thirty hours after the administration, a normal saline (0.5 ml.) containing egg albumin (7.5 mg.) and Evans blue (2.5 mg.) was intravenously given to each rat of Groups I-III in order to bring about P.C.A., respectively.
(§6) Beforehand, 3 hours, 1 hour and […] before the intravenous administration to bring about P.C.A., a normal saline (1 ml.) containing the prescribed amount of N-methyllaurotetanine hydrochloride and carboxymethylcellulose (0.5 %) was given orally, intraperitoneally or intravenously to each rat of Group I and a normal saline (1 ml.) containing only carboxymethylcellulose (0.5% was also given orally, intraperitoneally or intravenously to each rat of Group II.
(§7) Thirty minutes after challenge with antigen, the animals were sacrificed and then skinned. To each of the sensitized spots punched, was added a mixture (7 ml.) of acetone and 2% aqueous sodium alkylbenzenesulfonate solution (4:1) and then the mixture was homogenized. The homogenate was shaken at ambient temperature for 2 hours and filtered. Optical density at 620 nm of the filtrate was determined and from the value of the optical density, inhibitory effect of P.C.A. reaction was calculated by using the following equation. [formula] A: Optical Density Value of Group II B: Optical Density Value of Group I
(§8) C: Optical Density Value of Group III

[2] = test system: P.C.A. reaction in Donryu strain rats; test: Inhibition of P.C.A. reaction in Donryu strain rats, rat hyperimmune antiserum against egg albumin; details: Donryu rat (Table 2-I)
Protocol: (§9) (b) Rat hyperimmune antiserum against egg albumin
(§10) A solution of egg albumin (20 mg.) in normal saline (1 ml.) was mixed with complete adjuvant (1 ml.) (made by Difco Laboratories) to given an emulsion. The emulsion was subcutaneously given in a single dose of 1 ml. divided equally (0.25 ml.) to the four pads of male S.D. strain rats aged 6 weeks, each weighing about 200 g. (The first immunization).
(§11) One week after the administration, an emulsion which was prepared by mixing a solution of egg albumin (10 mg.) in normal saline (1 ml.) with complete adjuvant (1 ml.) was further given subcutaneously (at 3 places) and intramuscularly (at 1 place) in a single dose of 1 ml. divided equally (0.25 ml.) to thigh of the same rats. (The second immunization).
(§12) Three weeks after the second administration, a solution of egg albumin (1 mg.) in normal saline (1 ml.) was further given intracutaneously in a single dose of 0.3 ml. divided equally (0.1 ml.) to 3 places of the same rats. (The third immunization).
(§13) One week after the third administration, blood samples were collected from rats and treated in substantially the same manner as described in the above item (a). The antisera thus obtained were stored at -80° C. prior to use.
(§14) Further, an inhibition test on P.C.A. reaction using the rat hyperimmuneantiserum against egg albumin was carried out in substantially the same manner as described in the above, excepting that the intravenous administration to bring about P.C.A. was carried out at 5.5 hours after the administration of the serum and antiserum. And inhibitory effect on the P.C.A. reaction was also calculated in substantially the same manner as described in the above.
(b) Inhibitory effect on P.C.A. reaction in Donryu strain rat
The following tests were carried out in substantially the same manner as described in the above item (2)-(a).
(i) Test compound: N:methyllaurotetanine hydrochloride
Test animal: Male Donryu strain rats aged 8 weeks, weighing about 130 g.
Challenge: A normal saline (0.3 ml.) containing egg albumin (4.5 mg.) and Evans blue (1.5 mg.).
(ii) Test commpound: glaucine or boldine
Test animal: Male Donryu strain rats aged 8 weeks, weighing 140-150 g.
Challenge: the same as the above item (b)-(i).

[3] = test system: P.C.A. reaction in S.D. strain rats; test: Inhibition test of P.C.A. reaction in S.D. strain rats, rat hyperimmune antiserum against egg albumin
Protocol: as §9, §10, §11, §12, §13, §1, §2, §3, §4, §5, §6, §7, §8, §14

## COc1cc2c(cc1O)CC1c3c(cc(OC)c(OC)c3-2)CCN1C (centres unmarked) [N-Methyllaurotetanine hydrochloride]
[1]; intraperitoneal, 4 mg/kg
  Inhibitory effect on P.C.A. reaction: 6%
[1]; intraperitoneal, 13 mg/kg
  Inhibitory effect on P.C.A. reaction: 80%
[1]; intraperitoneal, 40 mg/kg
  Inhibitory effect on P.C.A. reaction: 85%
[1]; intravenous
  ED50: 2.5 mg/kg
[1]; intravenous, 1 mg/kg
  Inhibitory effect on P.C.A. reaction: 24%
[1]; intravenous, 3 mg/kg
  Inhibitory effect on P.C.A. reaction: 57%
[1]; intravenous, 9 mg/kg
  Inhibitory effect on P.C.A. reaction: 85%
[1]; ip, intraperitoneal
  ED50: 4.8 mg/kg
[1]; oral
  ED50: 100 mg/kg
[1]; oral, 20 mg/kg
  Inhibitory effect on P.C.A. reaction: 16%
[1]; oral, 66 mg/kg
  Inhibitory effect on P.C.A. reaction: 35%
[1]; oral, 200 mg/kg
  Inhibitory effect on P.C.A. reaction: 85%
[2]; intraperitoneal, 4 mg/kg
  Inhibitory effect on P.C.A. reaction: 10%
[2]; intraperitoneal, 13 mg/kg
  Inhibitory effect on P.C.A. reaction: 55%
[2]; intraperitoneal, 40 mg/kg
  Inhibitory effect on P.C.A. reaction: 50%
[2]; intravenous, 6.7 mg/kg
  Inhibitory effect on P.C.A. reaction: 50%
[2]; intravenous, 20 mg/kg
  Inhibitory effect on P.C.A. reaction: 80%
[2]; oral, 20 mg/kg
  Inhibitory effect on P.C.A. reaction: 30%
[2]; oral, 66 mg/kg
  Inhibitory effect on P.C.A. reaction: 40%
[2]; oral, 200 mg/kg
  Inhibitory effect on P.C.A. reaction: 65%
[3]; intraperitoneal, 4 mg/kg
  Inhibitory effect on P.C.A. reaction: 20%
[3]; intraperitoneal, 13 mg/kg
  Inhibitory effect on P.C.A. reaction: 60%
[3]; intraperitoneal, 40 mg/kg
  Inhibitory effect on P.C.A. reaction: 72%
[3]; intravenous
  ED50: 4 mg/kg
[3]; intravenous, 1 mg/kg
  Inhibitory effect on P.C.A. reaction: 23%
[3]; intravenous, 3 mg/kg
  Inhibitory effect on P.C.A. reaction: 46%
[3]; intravenous, 9 mg/kg
  Inhibitory effect on P.C.A. reaction: 65%
[3]; ip, intraperitoneal
  ED50: 11 mg/kg
[3]; oral
  ED50: 110 mg/kg
[3]; oral, 20 mg/kg
  Inhibitory effect on P.C.A. reaction: 42%
[3]; oral, 66 mg/kg
  Inhibitory effect on P.C.A. reaction: 33%
[3]; oral, 200 mg/kg
  Inhibitory effect on P.C.A. reaction: 81%
